Measured values taken from patent US20230390273A1, “4-PHENYL-TETRAHYDROPYRIDINE DERIVATIVES FOR TREATING HEARING DISEASES” (CILCARE DEV, priority 2021, published 2023).
Counter-ions that a name gives are not always drawn.

Columns and labels:
[1] = tested on: synaptic ribbons in inner hair cells; test: Ribbon synapse immunostaining and counting in cochlea, delayed treatment (Example 7); type: in vivo, male Wistar rats; settings: for Number of pre-synaptic and post-synaptic elements (CtBP2 and Homer) per IHC / Number of colocalized ribbons per IHC: 25 kHz, vs traumatized vehicle and NaCl groups, 2 days and 9 days post-noise; for Number of colocalized ribbons per IHC: statistically significant for Paliroden; for Synapse loss in the inner hair cells (FIG. 8): regions coding high frequency sounds, printed 2 hours and 8 days post-noise
Procedure: At T+28 days, after DPOAE/ABR measures, 10 cochlea (all eight (8) left cochleae and two (2) right cochleae taken randomly) per group were rapidly sampled and immediately fixed by PFA perfusion (through the round and oval windows with PFA 4% after creating a small hole at the apex) in order to performed ribbon synapse immunostaining and analysis. Cochleae were fixed for 1 hour in a 4% PFA solution and decalcified in undiluted RDO (10 mL/cochlea for a minimum of 2 hours). The membranous and sensory spiral containing the organ of Corti are dissected out as a flat surface preparation under a dissecting microscope and immunolabelled with appropriate antibodies: • Vglut3 (Vglut3-Guinea Pig IgG; #135 204, Synaptic systems and Anti-Guinea Pig IgG (H+L), #A21450; Thermo Fisher Scientific 647 nm Far-Red) to stain inner hair cell bodies (vesicular glutamate transporter). • Homer (Homer-Rabbit IgG; #GTX103278; Genetex and Anti-Rabbit IgG (H+L) #A11008 Thermo Fisher Scientific 568 nm Red) to stain dendritic proteins of auditory nerve fibers connecting to IHC (post-synaptic). • CtBP2 (CtBP2-Mouse-IgG1; #612044; BD Transduction Laboratories and Anti-Mouse IgG1, #A21121, Thermo Fisher Scientific 488 Green) to stain the ribeye protein as pre-synaptic marker in IHC. • Phalloidin (Alexa Fluor™ Plus 405 Phalloidin; #A30104; Thermo Fisher Scientific 405 Blue).
Images were acquired on a confocal microscope and the slides were analyzed to i) evaluate by visual observation the presence of OHC and IHC (based on nuclei staining with CtBP2 and HC cell body staining with phalloidin) and ii) count the number of synaptic ribbons in selected inner hair cells in cochlea regions coding sound of selected frequency (16 kHz, 25 kHz and 32 kHz).
The number of pre- (CtBP2) and post-synaptic (Homer) labeled spots was counted using Imaris software in 3 dimensions for each image. Co-localization of pre- and post-synaptic elements was defined as a distance of maximum […] between CtBP2- and Homer-labeled spots, using an in-house Matlab program to calculate the distances between CtBP2 and Homer labels from the x, y, and z coordinates.

[2] = tested on: male Wistar rats; test: ABR/DPOAE assessment, noise-induced permanent hearing loss, delayed trans-tympanic treatment (Example 7); type: in vivo; settings: T0+28 days, versus traumatized animals untreated or vehicle; treatment 2 days and 9 days post-noise
Procedure: Forty male Wistar rats were selected and evenly distributed to treatment and control groups, each group comprising 8 rats at the end of the study. Randomization was performed using the ABR threshold in the left ear at 16 kHz as a criterium. The “sham” group consists in rats (n=8) that received neither noise exposure nor trans-tympanic injection. The “traumatized NaCl” group consists of rats (n=8) that received noise exposure only and trans-tympanic injections of a saline solution. The “traumatized vehicle” group consists in rats (n=8) that received noise exposure and trans-tympanic injections of placebo (a composition comprising Poloxamer 407 (7,2% w/w), Poloxamer 188 (8% w/w) and Cremophor EL® (20% w/w) in phosphate buffer pH=7.4, the percentages being expressed relative to the total weight of the composition). The “traumatized paliroden” group consists in rats (n=8) that received noise exposure and trans-tympanic injections of a composition comprising paliroden (fumarate salt), corresponding to composition 4P described in Example 2. The “traumatized xaliproden” group consists in rats (n=10) that received noise exposure and a trans-tympanic injection of a composition comprising xaliproden (hydrochloride salt), corresponding to composition 4X described in Example 2. […]

Structure (SMILES)	Number of pre-synaptic and post-synaptic elements (CtBP2 and Homer) per IHC [1]	Number of colocalized ribbons per IHC [1]	Synapse loss in the inner hair cells (FIG. 8) [1]	Effect on ABR thresholds, DPOAE amplitudes, ABR Wave I amplitudes [2]
FC(F)(F)c1cccc(C2=CCN(CCc3ccc(-c4ccccc4)cc3)CC2)c1 [paliroden (fumarate salt), 1-[2-(4-biphenylyl)ethyl]-4-(3-trifluoromethylphenyl)-1,2,3,6-tetrahydropyridine]	increase	increase	significantly repair synapse loss	did not show effect
FC(F)(F)c1cccc(C2=CCN(CCc3ccc4ccccc4c3)CC2)c1 [xaliproden (hydrochloride salt), 1-[2-(2-naphthyl)ethyl]-4-(3-trifluoromethylphenyl)-1,2,3,6-tetrahydropyridine]	increase	increase	significantly repair synapse loss	did not show effect
